These results are taken from US11180483B2, “Substituted reverse pyrimidine Bmi-1 inhibitors” (PTC Therapeutics, Inc., priority 2012, dated 2021).

SMILES strings stand for the structures. Bounds are passed on as bounds.

The subject of the test is Bmi-1. The test is described as follows: Sandwich ELISA Assay (Bmi-1 ELISA) in HT-1080 cells. It counts as cell-based. An outline of the steps:
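HT-1080 cells exposed to compound in 0.5% final DMSO for 40-48 h at 37 °C, then lysed. Bmi-1 was quantified by sandwich ELISA: mouse monoclonal capture, rabbit anti-Bmi-1 detection, HRP anti-rabbit and TMB. Read at OD450 (OD570 reference) against a recombinant GST-Bmi-1 standard curve (0-8000 pg/mL).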
On the technique in general: An ELISA detects its analyte on a solid surface through an enzyme-linked reagent.
Turning to `Cc1nc2ccc(N)cc2n1-c1nc(N)c(F)c(Nc2ccc(OC(F)F)cc2)n1` [Cpd 257, 2-(6-amino-2-methyl-1H-benzimidazol-1-yl)-N-[4-(difluoromethoxy)phenyl]-5-fluoropyrimidine-4,6-diamine], the EC50 (as a rule, the concentration that produces a half-maximal response) lay in the range of 10 to 100 nM.

`Nc1nc(-n2c(C3CC3)nc3ccccc32)nc(Nc2ccc(OC(F)F)c(F)c2)c1F` [Cpd 122, 2-(2-cyclopropyl-1H-benzimidazol-1-yl)-N-[4-(difluoromethoxy)-3-fluorophenyl]-5-fluoropyrimidine-4,6-diamine] had an EC50 of 10 to 100 nM.

In the case of `CCc1nc2ccccc2n1-c1nc(N)cc(Nc2ccc(OC(F)F)cc2)n1` [Cpd 156, N-[4-(difluoromethoxy)phenyl]-2-(2-ethyl-1H-benzimidazol-1-yl)pyrimidine-4,6-diamine], the EC50 was in the range of 1 to 10 nM.

As to `Cc1nc2ccc(C#N)cc2n1-c1nc(N)c(F)c(Nc2ccc(C(F)(F)F)cc2)n1` [Cpd 222, 1-(4-amino-5-fluoro-6-{[4-(trifluoromethyl)phenyl]amino}pyrimidin-2-yl)-2-methyl-1H-benzimidazole-6-carbonitrile], the EC50 is 100 to 3000 nM.

In the case of `Cc1nc2cc(Cl)ccc2n1-c1nc(N)cc(Nc2ccc(OC(F)F)cc2)n1` [Cpd 99, 2-(5-chloro-2-methyl-1H-benzimidazol-1-yl)-N-[4-(difluoromethoxy)phenyl]pyrimidine-4,6-diamine], the EC50 lay within 100 to 3000 nM.

Take `Cc1ccc(Nc2nc(-n3c(C)nc4ccc(F)cc43)nc(N)c2F)cc1` [Cpd 184, 5-fluoro-2-(6-fluoro-2-methyl-1H-benzimidazol-1-yl)-N-(4-methylphenyl)pyrimidine-4,6-diamine]: the EC50 was in the range of 1 to 10 nM.

Molecule `Cc1nc2ccccc2n1-c1nc(N)cc(Nc2ccc(C(F)(F)F)c(F)c2)n1` [Cpd 80, N-[3-fluoro-4-(trifluoromethyl)phenyl]-2-(2-methyl-1H-benzimidazol-1-yl)pyrimidine-4,6-diamine] yielded an EC50 of 10 to 100 nM.

As to `CCc1nc2c(F)cc(F)cc2n1-c1nc(N)c(F)c(Nc2ccc(OC(F)F)c(F)c2)n1` [Cpd 130, N-[4-(difluoromethoxy)-3-fluorophenyl]-2-(2-ethyl-4,6-difluoro-1H-benzimidazol-1-yl)-5-fluoropyrimidine-4,6-diamine], the EC50 was in the range of 10 to 100 nM.

Molecule `Cc1c(N)nc(-n2c(C)nc3ccccc32)nc1Nc1ccc(C(F)(F)F)cc1` [Cpd 172, 5-methyl-2-(2-methyl-1H-benzimidazol-1-yl)-N-[4-(trifluoromethyl)phenyl]pyrimidine-4,6-diamine] returned an EC50 of 100 to 3000 nM.

Take `Cc1nc2ccccn2c1-c1nccc(Nc2ccc(Cl)cc2)n1` [Cpd 5, N-(4-chlorophenyl)-2-(2-methylimidazo[1,2-a]pyridin-3-yl)pyrimidin-4-amine]: the EC50 fell in the range of 100 to 3000 nM.

Consider `COc1ccc(Nc2ccnc(-c3c(C(F)(F)F)nc4cnccn34)n2)cc1` [Cpd 45, N-(4-methoxyphenyl)-2-[2-(trifluoromethyl)imidazo[1,2-a]pyrazin-3-yl]pyrimidin-4-amine], for which the EC50 was in the range of 100 to 3000 nM.

Turning to `Nc1nc(-n2c(C3CC3)nc3ccccc32)nc(Nc2ccc(Cl)cc2)c1F` [Cpd 279, N-(4-chlorophenyl)-2-(2-cyclopropyl-1H-benzimidazol-1-yl)-5-fluoropyrimidine-4,6-diamine], the EC50 is 10 to 100 nM.

As to `Cc1nc2cc(F)c(F)cc2n1-c1nc(N)c(F)c(Nc2ccc(C(F)(F)F)cc2)n1` [Cpd 125, 2-(5,6-difluoro-2-methyl-1H-benzimidazol-1-yl)-5-fluoro-N-[4-(trifluoromethyl)phenyl]pyrimidine-4,6-diamine], the concentration for a half-maximal effect (EC50) was in the range of 100 to 3000 nM.

In the case of `Nc1nc(-n2c(C3CC3)nc3ccccc32)nc(Nc2ccc(OC(F)F)cc2)c1F` [Cpd 121, 2-(2-cyclopropyl-1H-benzimidazol-1-yl)-N-[4-(difluoromethoxy)phenyl]-5-fluoropyrimidine-4,6-diamine], the EC50 is 1 to 10 nM.

`COc1ccc(Nc2ccnc(-n3c(C(F)(F)F)nc4ccccc43)n2)cc1Cl` [Cpd 42, N-(3-chloro-4-methoxyphenyl)-2-[2-(trifluoromethyl)-1H-benzimidazol-1-yl]pyrimidin-4-amine] registered an EC50 of 10 to 100 nM.

Regarding `CC(C)c1ccc(Nc2ccnc(-c3c(C(F)(F)F)nc4ccccn34)n2)cc1` [Cpd 38, N-[4-(propan-2-yl)phenyl]-2-[2-(trifluoromethyl)imidazo[1,2-a]pyridin-3-yl]pyrimidin-4-amine], the EC50 was in the range of 100 to 3000 nM.

`Cc1nc2c(F)cc(F)cc2n1-c1nc(N)cc(Nc2ccc(C(F)(F)F)c(F)c2)n1` [Cpd 89, 2-(4,6-difluoro-2-methyl-1H-benzimidazol-1-yl)-N-[3-fluoro-4-(trifluoromethyl)phenyl]pyrimidine-4,6-diamine] gave an EC50 of 100 to 3000 nM.

Molecule `COc1ccc2nc(C)n(-c3nc(N)c(F)c(Nc4ccc(OC(F)F)cc4)n3)c2c1` [Cpd 247, N-[4-(difluoromethoxy)phenyl]-5-fluoro-2-(6-methoxy-2-methyl-1H-benzimidazol-1-yl)pyrimidine-4,6-diamine] had an EC50 of 10 to 100 nM.

In turn, `Cc1nc2c(F)cc(F)cc2n1-c1nc(N)c(F)c(Nc2ccc(OC(F)(F)F)cc2)n1` [Cpd 238, 2-(4,6-difluoro-2-methyl-1H-benzimidazol-1-yl)-5-fluoro-N-[4-(trifluoromethoxy)phenyl]pyrimidine-4,6-diamine] had an EC50 of 100 to 3000 nM.

`FC(F)(F)c1nc2ccccn2c1-c1nccc(Nc2ccc3c(c2)OCO3)n1` [Cpd 28, N-(1,3-benzodioxol-5-yl)-2-[2-(trifluoromethyl)imidazo[1,2-a]pyridin-3-yl]pyrimidin-4-amine] yielded an EC50 of 100 to 3000 nM.

The molecule `COc1ccc2nc(C(F)(F)F)c(-c3nccc(Nc4ccc(C(F)(F)F)cc4)n3)n2c1` [Cpd 48, 2-[6-methoxy-2-(trifluoromethyl)imidazo[1,2-a]pyridin-3-yl]-N-[4-(trifluoromethyl)phenyl]pyrimidin-4-amine] displayed an EC50 of 100 to 3000 nM.

The molecule `Cc1nc2ccccc2n1-c1nc(N)c(F)c(Nc2ccc(Cl)c(F)c2)n1` [Cpd 261, N-(4-chloro-3-fluorophenyl)-5-fluoro-2-(2-methyl-1H-benzimidazol-1-yl)pyrimidine-4,6-diamine] came in with an EC50 of 10 to 100 nM.

Consider `Cc1nc2ccccc2n1-c1nccc(Nc2ccc(C(F)(F)F)cc2)n1` [Cpd 41, 2-(2-methyl-1H-benzimidazol-1-yl)-N-[4-(trifluoromethyl)phenyl]pyrimidin-4-amine], for which the EC50 was in the range of 100 to 3000 nM.

Consider `COc1ccc(Nc2ccnc(-c3c(C(F)(F)F)nc4ccccn34)n2)cn1` [Cpd 30, N-(6-methoxypyridin-3-yl)-2-[2-(trifluoromethyl)imidazo[1,2-a]pyridin-3-yl]pyrimidin-4-amine], for which the EC50 fell in the range of 100 to 3000 nM.

Molecule `COc1ccc2nc(C)n(-c3nc(N)c(F)c(Nc4ccc5c(c4)OCO5)n3)c2c1` [Cpd 250, N-(1,3-benzodioxol-5-yl)-5-fluoro-2-(6-methoxy-2-methyl-1H-benzimidazol-1-yl)pyrimidine-4,6-diamine] gave an EC50 of 10 to 100 nM.

With `CCc1nc2c(F)cc(F)cc2n1-c1nc(N)c(F)c(Nc2ccc(OC(F)F)cc2)n1` [Cpd 132, N-[4-(difluoromethoxy)phenyl]-2-(2-ethyl-4,6-difluoro-1H-benzimidazol-1-yl)-5-fluoropyrimidine-4,6-diamine], the EC50 is 10 to 100 nM.

`Cc1nc2cc(C#N)ccc2n1-c1nc(N)c(F)c(Nc2ccc(Cl)cc2)n1` [Cpd 230, 1-{4-amino-6-[(4-chlorophenyl)amino]-5-fluoropyrimidin-2-yl}-2-methyl-1H-benzimidazole-5-carbonitrile]: the EC50 lay within 100 to 3000 nM.

Turning to `COc1ccc2nc(C)n(-c3nc(N)c(F)c(Nc4ccc(Cl)cc4)n3)c2c1` [Cpd 245, N-(4-chlorophenyl)-5-fluoro-2-(6-methoxy-2-methyl-1H-benzimidazol-1-yl)pyrimidine-4,6-diamine], the EC50 fell in the range of 10 to 100 nM.

`Cc1nc2cc(Cl)ccc2n1-c1nc(N)c(F)c(Nc2ccc(C(F)(F)F)cc2)n1` [Cpd 158, 2-(5-chloro-2-methyl-1H-benzimidazol-1-yl)-5-fluoro-N-[4-(trifluoromethyl)phenyl]pyrimidine-4,6-diamine] had an EC50 of 100 to 3000 nM.

`COc1ccc(Nc2nc(-n3c(C4CC4)nc4ccccc43)nc(N)c2F)cc1` [Cpd 277, 2-(2-cyclopropyl-1H-benzimidazol-1-yl)-5-fluoro-N-(4-methoxyphenyl)pyrimidine-4,6-diamine] yielded an EC50 of at most 1 nM.

Regarding `CN(C)c1ccc(Nc2ccnc(-c3c(C(F)(F)F)nc4ccccn34)n2)cn1` [Cpd 31, N^2,N^2-dimethyl-N^5-{2-[2-(trifluoromethyl)imidazo[1,2-a]pyridin-3-yl]pyrimidin-4-yl]pyridine-2,5-diamine], the EC50 was in the range of 10 to 100 nM.

Regarding `COc1ccc(Nc2ccnc(-c3c(C(F)(F)F)nc4ccccn34)n2)cc1` [Cpd 12, N-(4-methoxyphenyl)-2-[2-(trifluoromethyl)imidazo[1,2-a]pyridin-3-yl]pyrimidin-4-amine], the EC50 is 10 to 100 nM.

In turn, `Cc1nc2cc(F)c(F)cc2n1-c1nc(N)c(F)c(Nc2ccc(OC(F)F)cc2)n1` [Cpd 133, N-[4-(difluoromethoxy)phenyl]-2-(5,6-difluoro-2-methyl-1H-benzimidazol-1-yl)-5-fluoropyrimidine-4,6-diamine] yielded an EC50 of 10 to 100 nM.

With `Cc1nc2c(F)cccc2n1-c1nc(N)c(F)c(Nc2ccc(OC(F)F)cc2)n1` [Cpd 135, N-[4-(difluoromethoxy)phenyl]-5-fluoro-2-(4-fluoro-2-methyl-1H-benzimidazol-1-yl)pyrimidine-4,6-diamine], the EC50 fell in the range of 10 to 100 nM.

Molecule `Cc1nc2ccc(Cl)cc2n1-c1nc(N)cc(Nc2ccc(OC(F)F)cc2)n1` [Cpd 97, 2-(6-chloro-2-methyl-1H-benzimidazol-1-yl)-N-[4-(difluoromethoxy)phenyl]pyrimidine-4,6-diamine] had an EC50 of 10 to 100 nM.

Molecule `COc1ccc(Nc2ccnc(-c3c(C)nc4ccccn34)n2)cc1` [Cpd 4, N-(4-methoxyphenyl)-2-(2-methylimidazo[1,2-a]pyridin-3-yl)pyrimidin-4-amine] came in with a half-maximal effective concentration (EC50) of 10 to 100 nM.
